# From patent publication US9624491B2, “Methods and compositions for the detection and treatment of cancer involving miRNAs and miRNA inhibitors and targets” (Memorial Sloan Kettering Cancer Center, priority 2010, dated 2017)
# What was measured:
# [1] = tested on: FL5-12 cells; assay: Cell cycle and cell death (viability) assays in FL5-12 cells; format: cell-based, murine
# Procedure: (§1) FL5-12 murine lymphocytes, IL3 depletion studies and viral transductions were as described (Mavrakis, et al., 2008) (Plas, Talapatra, Edinger, Rathmell, & Thompson, 2001). Cell cycle and cell death assays based on uptake of DNA staining dye (LDS751) using Cell cycle and Viacount assays from Guava Technologies were performed as reported (Mavrakis, et al., 2008). The retroviral vectors are based on murine stem cell virus (MSCV) and include the miRNA expression vectors encoding miRs 17, 18a, 19b-1 (miR-19), 106a, 106b, 25 (He, et al., 2005), the vectors encoding Notch-ICN (a gift from W. Pear) (Pear, et al., 1996) and Bcl2 (Wendel, et al., 2004), the individual shRNA vectors (FIG. 17) and the library vector (MRP) (FIGS. 18a and b). miRNA inhibitor oligonucleotides (antagomirs) MZIP19a-PA-1, MZIP19b-PA-1, and scrambled control (MZIP000-PA-1) were from System Biosciences.
# [2] = tested on: FL5-12 lymphocytes; assay: IL3 depletion competition assay for cytokine-independent survival of FL5-12 lymphocytes; format: cell-based, murine
# Procedure: An established in vitro assay of hematopoietic transformation (Plas, Talapatra, Edinger, Rathmell, & Thompson, 2001) was used to identify the key oncogenic activities within the 17˜92 cluster and its paralogues. All miRNAs representing families of unique seed sequences, specifically miR-17, miR-18a, miR-19b-1 (miR-19), miR-20a, miR-106a, miR-106b and miR-25 were tested (FIG. 1a). The assay is based on the IL3 dependence of FL5-12 lymphocytes, which undergo apoptosis when removed from IL3. In competition experiments, FL5-12 cells were partially transduced with GFP plus individual miRNAs or empty vector and these mixed populations were monitored by fluorescence-activated cell sorting (FACS) for changes in their relative proportions (FIG. 1b).
# as §1
# The primary screen is based on c-MYC-induced apoptosis in MEFs (Evan, et al., 1992). MEFs were transduced with c-MYC and the miRNA library and cultured in puromycin to select for homogeneous c-MYC expression; apoptosis was triggered by diluting serum from 10% to 0.1%. Surviving cells remained adherent and were collected for DNA isolation, PCR amplification of the integrated miRNA library constructs, sub-cloning into pGEM-T vector, bacterial transformation, and sequence identification of ˜100 colonies. A secondary library was constructed by sub-cloning all miRNAs from the primary screen into an MSCV construct. The secondary screen is based on the IL-3 dependence of FL5-12 lymphocytes in vitro (Mavrakis, et al., 2010), (Plas, Talapatra, Edinger, Rathmell, & Thompson, 2001). FL5-12 cells were partially transduced with the pooled, GFP-tagged library and selected by IL-3 depletion. miRNAs were identified as above. Individual miRNAs were subsequently validated in the same FL5-12 assay and in vivo.
# [3] = tested on: NOTCH1-induced T-ALL; assay: Mouse model of Notch-ICN (NOTCH1)-induced T-ALL, adoptive transfer of transduced HPCs; format: in vivo; conditions: HPCs expressing NOTCH1-ICN plus miRNA or shRNA transplanted into irradiated recipients
# Procedure: Can miR-19 drive the development of lymphatic malignancies in vivo? Based on the miR-19 expression and translocation data, miR-19 was assessed in a mouse model of T-ALL (Pear, et al., 1996). Briefly, most cases of T-ALL carry mutations in the Notch1 gene, and, like the […] translocation, these generate the constitutively active intracellular domain of NOTCH1 (Notch-ICN) (Weng, et al., 2004). To test miR-19's ability to promote Notch-ICN-induced T-ALL in vivo, HPCs were adoptively transferred into irradiated recipients (FIG. 3d). […] At the same time, 80% of the mice receiving HPCs expressing only Notch-ICN remained disease free (p=0.0003) (FIG. 3e).
# The mouse models of Notch1-induced T-ALL and the EμMyc lymphoma based on adoptive transfer of retrovirally transduced HPCs have been reported (Pear, et al., 1996), (Wendel, et al., 2004). Data were analyzed in Kaplan-Meier format using the log-rank (Mantel-Cox) test for statistical significance. The p53 loss of heterozygosity polymerase chain reaction (LOH PCR) and immunophenotyping by surface marker analysis were as described (Wendel, et al., 2004).
# A murine model of NOTCH1-induced T-ALL was used to directly test the oncogenic potential of the most promising miRNAs in vivo. Briefly, HPCs were transduced with NOTCH1 together with either empty vector or an miRNA and transplanted into irradiated, syngeneic recipients. Animals were monitored for leukemia onset by regular blood counts (FIG. 22a). […] Typically, animals receiving HPCs transduced with these miRNAs develop an acute leukemia by 75 days, while >80% of vector controls or animals receiving miR-30 (n=5, p=0.15) remain disease free at this time (FIG. 22b). Based on the in vitro screen and prediction, additional miRNAs were tested. […] Thus, miR-19b, miR-20a, miR-26a, miR-223 and also the less abundant miR-27a and miR-148/152 behave as oncogenes in a murine T-ALL model.
# The mouse T-ALL model has been reported (Pear, et al., 1996), (Wendel, et al., 2004). Data were analyzed in Kaplan-Meier format using the log-rank (Mantel-Cox) test for statistical significance. […]
# [4] = tested on: Pten, Ppp2r5e, Prkaa1 and Bim mRNA; assay: qRT-PCR of miR-19 target genes in FL5-12 cells; format: cell-based; conditions: FL5-12 cells and murine T-ALL samples
# Excerpt: Total RNA and miRNA-enriched RNA were extracted from cells and tumor samples using Allprep DNA/RNA/Protein Kits (Qiagen) and miRNeasy Mini Kits (Qiagen), respectively. Pathological diagnosis was by expert hematopathologists at Weill Cornell Medical College. cDNA synthesis and qRT-PCR and analysis by the ΔΔ Ct method were as described (Mavrakis, et al., 2008). TaqMan Gene Expression Assays were used for Bcl2L11 (Mm00437796_m1), Dock5 (Mm00555757_m1), FoxO1 (Mm00490672_m1), FoxO3 (Mm01185722_m1), Ppp2r5e (Mm00803759_m1), Prkaa1 (Mm01296695_m1) and Pten (Mm01212532_m1). Mouse GAPD (GAPDH) (4352932) and miR-19b (000396) were from Applied Biosystems. Expression was normalized to RNU6B (001093, Applied Biosystems).
substance,measurement,setting,value
"miR-19: miRNA of the 17˜92 cluster, UGUGCAAAUCCAUGCAAAACUGA (SEQ ID NO: 2); seed family in Table 3 (expressed or natural sequence; listed as Homo sapiens)",Viability,[1]; FL5-12 cells withdrawn from IL3 for 48 h,82%±1.5%
same,S-phase fraction,[1]; synchronized FL5-12 cells 24 h after release,24.5%±0.5
same,enrichment of miRNA/GFP-expressing FL5-12 cells over parental cells upon IL3 depletion,"[2]; competition experiment, FACS",rapidly enriched over parental cells upon IL3 depletion
same,IL-3 independence of FL5-12 cells,[2]; retest of individual miRNAs from secondary library screen,confer IL-3 independence on FL5-12 cells
same,leukemia onset / leukemia-free survival,[3],rapidly succumbed to T-ALL
same,leukemia onset / leukemia-free survival,[3]; listed as miR-19b,disease acceleration
same,"reductions in the mRNA levels of Pten, Ppp2r5r, Prkaa1 and Bim",[4],up to 2 ×
